Source: patent publication US12133486B2, “Methods of propagation of arbuscular mycorrhizal fungi (AMF) and uses thereof” (Terra Microbes, LLC, priority 2021, dated 2024)

Test system: AMF infections of western wheatgrass (Pascopyron smithii) roots
Experiment: Field plot study: AM fungal infection of western wheatgrass roots
Type: in vivo
Details: for AM Infection t = 0 days / AM Infection t = 47 days / AM Infection t = 97 days: western wheatgrass roots, field plots, mean n = 3; for AM Infection t = 0 days: first sampling; for AM Infection t = 97 days: third sampling
Description: Twelve plots of size 50 cm by 50 cm were established on a homogenous site 2.54 meters (running northeast and southwest) by 4.06 meters (running southeast and northwest). Plant distribution was mostly homogeneous across the entire site, with western wheatgrass dominant. The plots were in four rows with three plots in each row. Within a row plots were 25 cm apart. Rows were 50 cm apart. An experimental unit was one plot. Treatments were replicated three times. Treatments included: controls (no treatment), potassium chloride treatment, potassium phosphate treatment, and potassium phosphite treatment. (See, FIG. 2).
Treatments: All plots received the same amount of solution. The control plots were treated with distilled water only (6.375 L). The KCl plots treated with distilled water containing the same amount of K as was needed to convert the phosphorous acid (H3PO3) to dipotassium phosphite (K2HPO3). The phosphate plots were treated with sufficient dipotassium phosphate (K2HPO4) to deliver 3 g of P per plot dissolved in the same amount of distilled water as the control plots received and the KCl plots received. The phosphite plots were treated with sufficient dipotassium phosphite (K2HPO3) to deliver 3 g of P per plot dissolved in the same amount of distilled water as the control plots received, the KCl plots received and the phosphate plots received.
The field experiment reported in this example was conducted during June through October. Plots were established during early June and treated on the 15th and 16th day (as in Example 3 above). […] Sample size and depth was as detailed above in Example 3.
Analyses of infections were performed by examining roots of wheatgrass (Pascopyron smithii). This plant was the dominant plant in all of the plots and is known to be commonly infected with AM fungi. (See, Loree M. A. J. and Williams S. E., New Phytologist, 106:735-744, 1987; and Wang B. and Qui Y.-L. 2006, Ibid.). During sampling of soils using the methodology outlined in Example 3, above, root of target plants were removed and separated by plant species, each sample being labeled and preserved in FAA solution until being further processed.
Staining of the roots was achieved according to published procedures (see, Phillips J. M. and Hayman D. S., Trans. Brit. Mycological Soc., 55:158-160, 1970) except that cotton blue lactophenol was substituted with lactic acid glycerol with trypan blue since lactophenol is toxic. The procedure used for staining was as follows: • A) Remove roots from FAA Solutions. Cut into 1 cm lengths. Place in test tube, push roots to the bottom of the test tube. • B) Cover roots with 10% KOH (10 grams of reagent grade KOH in enough distilled water to 100 ml). Let stand overnight, about 10 hours. • C) Simmer at 90° C. for one hour in a water bath (container with water and test tubes with roots over a heat source). • D) Rinse in tap water. • E) Rinse five minutes in 0.1 N HCl (3.65 […] of HCl in 1000 ml total volume with distilled water). • F) Rinse in tap water. • G) Simmer at 90° C. one hour (in water bath) in Trypan blue Lactic Acid Glycerol (distilled water, 100 ml; lactic acid (reagent grade 85 to 88%) 100 ml; glycerin (reagent grade 85% also listed as glycerol), 200 ml; trypan blue, 0.1 grams (60% dye content). • H) Rinse in tap water. • I) Place in clear lactic acid glycerol (same formulation as above except without the Trypan blue) if destaining is necessary. Samples can be simmered at 90° C. (one hour in water bath) or left at room temperature for at least 72 hours or longer. • J) Mount on standard glass slide (2.5 cm by 7.6 cm) in lactic acid glycerol. Cover slip (2.3 cm by 4.8 cm) used.
An estimate of the degree of infection of western wheatgrass was made by making microscopic scans of each slide such that 40 root segments were evaluated. The evaluation was performed using the 20× objective, e.g., 200× total magnification—eyepieces were 10× multiplied by the objective magnification. […]

Row | Compound | AM Infection t = 0 days | AM Infection t = 47 days (second sampling) | AM Infection t = 97 days | root infection level compared with control, KCl and phosphite plots (second sampling, t = 47)
1 | OP(O)O [PO3, dipotassium phosphite] | 32Aa Per forty 1.1 mm root segments | 31Aab Per forty 1.1 mm root segments | 39ACc Per forty 1.1 mm root segments | 
2 | O=P([O-])([O-])O.[K+].[K+] [PO4, dipotassium phosphate] | 31Aa Per forty 1.1 mm root segments | 38.7Bbc Per forty 1.1 mm root segments | 38ACc Per forty 1.1 mm root segments | significant increase
